Test results from patent US20130338367A1, “PYRAZOLE DERIVATIVES AND PESTICIDES” (Nissan Chemical Industries, Ltd., priority 2011, published 2013).
Counter-ions that a name gives are not always drawn. Like-named read-outs stand apart in the source and are kept apart here.

Legend:
Format in all cases: in vivo
[1] = test system: Bemisia argentifolii; assay: Insecticidal Test on Bemisia argentifolii; conditions: 120 h
Protocol: In styrol cups having an inner diameter of 7 cm, wet filter paper was laid, and kidney bean leaves cut to 3 cm were laid on the paper. 10% emulsifiable concentrates (or 10% wettable powders) of compounds of the present invention were diluted with water containing a spreader to obtain 500 ppm solutions. 2.5 ml of the solutions were sprayed from a rotary spray tower into the styrol cups (2.5 mg/cm^2). The leaves were dried in air, and adults of Bemisia argentifolii were released in the cups. The cups were closed and placed in an incubator at 25° C. 5 Days after, dead insects were counted, and the mortality was calculated by using the same equation as in Test Example 1. The test was carried out in duplicate.

[2] = test system: Aphis gossypii; assay: Insecticidal Test on Aphis gossypii; conditions: foliar, 144 h
Protocol: (§1) Wet absorbent cotton was laid on glass dishes having an inner diameter of 3 cm, and covered with leaves of cucumber cut into circles of the same diameter, and 4 apterous adults of Aphis gossypii were released. After a day, 10% emulsifiable concentrates (or 10% wettable powders) of compounds of the present invention were diluted with water containing a spreader to obtain 500 ppm solutions, and the solution were sprayed from a rotary spray tower (2.5 mg/cm^2). The dishes were covered with lids and placed in an incubator at 25° C. 6 Days after, dead insects were counted, and the mortality was calculated by using the same equation as in Test Example 1. The test was carried out in duplicate.

[3] = test system: Nilaparvata lugens; assay: Insecticidal Test on Nilaparvata lugens; conditions: 144 h
Protocol: 10% emulsifiable concentrates (or 10% wettable powders) of compounds of the present invention were diluted with water containing a spreader to obtain 500 ppm solutions. Rice sheaths were soaked in the solutions for about 10 seconds, dried in air and put in test tubes. In each tube, five 2nd-instar nymphs of Nilaparvata lugens were released, and the tubes were capped with sponge and placed in an incubator at 25° C. 6 Days after, dead insects were counted, and the mortality (%) (the number of dead insects÷the number of released insects×100) was calculated. The test was carried out in duplicate.

[4] = test system: Myzus persicae; assay: Insecticidal Test on Myzus persicae; conditions: foliar, 144 h
Protocol: as §1, with “Canarium album” for “cucumber”, “Myzus persicae” for “Aphis gossypii”

[5] = test system: Myzus persicae; assay: Soil Irrigation Test on Myzus persicae; conditions: 144 h, 100 ppm solution, 10 ml soil irrigation of cabbage seedlings, greenhouse, 6 days after release of insects
Protocol: 10% emulsifiable concentrates of compounds of the present invention were diluted with tap water to obtain 100 ppm solutions. The soil around the bases of cabbage seedlings (at the 2.5 true leaf stage) planted in plastic cups was irrigated with 10 ml of the solutions, and the cups were placed in a greenhouse. One day after the irrigation, adults of Myzus persicae were released at a ratio of 20 insects per seedling, and the seedlings were incubated in the greenhouse. 6 Days after the release of the insects, living insects were counted, and the control value was calculated from the following equation.
Control value (%)={1−(Cb×Tai)/(Cai×Tb)}×100
Cb: the number of insects in a non-treated area before treatment
Cai: the final number of living insects in a non-treated area
Tb: the number of insects in a treated area before treatment
Tai: the final number of living insects in a treated area

[6] = 500 ppm solution sprayed on kidney bean leaves, adults, 25° C., 5 days after, read-out: mortality
[7] = 500 ppm solution sprayed, apterous adults on cucumber leaf discs, 25° C., 6 days after, read-out: mortality
[8] = 500 ppm solution, rice sheaths soaked, 2nd-instar nymphs, 25° C., 6 days after, read-out: mortality (%)
[9] = 500 ppm solution sprayed, apterous adults on leaf discs, 25° C., 6 days after, read-out: mortality

| Structure (SMILES) | mortality at 500 ppm [3, 8] | mortality at 500 ppm [4, 9] | further results |
| --- | --- | --- | --- |
| CSCCCN(C(C)=O)c1cn(-c2cccnc2)nc1Cl [1-153, N-{3-chloro-1-(pyridin-3-yl)-1H-pyrazol-4-yl}-N-{3-(methylthio)propyl}acetamide] | – | – | mortality at 500 ppm [1, 6]: ≥ 90%; mortality at 500 ppm [2, 7]: ≥ 90% |
| O=C(CCCCl)Nc1cn(-c2cccnc2)nc1Cl [1-131, 4-chloro-N-{3-chloro-1-(pyridin-3-yl)-1H-pyrazol-4-yl}butanamide] | ≥ 90% | – | – |
| CSC1CCCN(c2cnn(-c3cccnc3)c2)C1=O (stereo not drawn) [1-028, 3-(methylthio)-1-{1-(pyridin-3-yl)-1H-pyrazol-4-yl}piperidin-2-one] | ≥ 90% | ≥ 90% | mortality at 500 ppm [1, 6]: ≥ 90%; mortality at 500 ppm [2, 7]: ≥ 90% |
| CSCCC(=O)N(C)c1cn(-c2cccnc2)nc1C [1-018, N-methyl-N-{3-methyl-1-(pyridin-3-yl)-1H-pyrazol-4-yl}-3-(methylthio)propanamide] | ≥ 90% | ≥ 90% | – |
| CNc1cn(-c2cccnc2)nc1Cl [A-003, 3-chloro-N-methyl-1-(pyridin-3-yl)-1H-pyrazole-4-amine dihydrochloride] | – | ≥ 90% | – |
| O=C1C(Br)CCCN1c1cnn(-c2cccnc2)c1 (stereo not drawn) [1-027, 3-bromo-1-{1-(pyridin-3-yl)-1H-pyrazol-4-yl}piperidin-2-one] | – | ≥ 90% | – |
| CN(C1=NCCS1)c1cn(-c2cccnc2)nc1Cl [3-001, N-{3-chloro-1-(pyridin-3-yl)-1H-pyrazol-4-yl}-N-methyl-4,5-dihydrothiazole-2-amine] | – | – | mortality at 500 ppm [1, 6]: ≥ 90% |
| C=C1CCN(c2cn(-c3cccnc3)nc2Cl)C1=O [1-133, 1-{3-chloro-1-(pyridin-3-yl)-1H-pyrazol-4-yl}-3-methylenepyrrolidin-2-one] | – | ≥ 90% | – |
| CN(C(=O)OC(C)(C)C)c1cn(-c2cccnc2)nc1Cl [1-037, tert-butyl 3-chloro-1-(pyridin-3-yl)-1H-pyrazol-4-yl(methyl)carbamate] | – | – | mortality at 500 ppm [1]: ≥ 90% |
| Cc1nn(-c2cccnc2)cc1N(C)C(=O)OC(C)(C)C [1-012, tert-butyl methyl{3-methyl-1-(pyridin-3-yl)-1H-pyrazol-4-yl}carbamate] | – | – | mortality at 500 ppm [4]: ≥ 90%; mortality at 500 ppm [1]: ≥ 90%; mortality at 500 ppm ([3]; in Oryza sativa): ≥ 90% |
| CCN(C(=O)C(CSC)OC)c1cn(-c2cccnc2)nc1Cl (stereo not drawn) [1-160, N-{3-chloro-1-(pyridin-3-yl)-1H-pyrazol-4-yl}-N-ethyl-2-methoxy-3-(methylthio)propanamide] | – | – | pest or weed control at 100 ppm [5]: ≥ 90% |
| C=CC(=O)N(CC)c1cn(-c2cccnc2)nc1Cl [1-152, N-{3-chloro-1-(pyridin-3-yl)-1H-pyrazol-4-yl}-N-ethylacrylamide] | – | – | mortality at 500 ppm [1, 6]: ≥ 90% |
| CCN(C(=O)OC(C)(C)C)c1cn(-c2cccnc2)nc1Cl [1-056, tert-butyl 3-chloro-1-(pyridin-3-yl)-1H-pyrazol-4-yl(ethyl)carbamate] | – | – | mortality at 500 ppm [1]: ≥ 90%; mortality at 500 ppm [2]: ≥ 90% |
| O=C1CCCN1c1cn(-c2cccnc2)nc1Cl [1-132, 1-{3-chloro-1-(pyridin-3-yl)-1H-pyrazol-4-yl}pyrrolidin-2-one] | – | ≥ 90% | – |
| CSCCC(=O)N(C)c1cn(-c2cccnc2)nc1Cl [1-038, N-{3-chloro-1-(pyridin-3-yl)-1H-pyrazol-4-yl}-N-methyl-3-(methylthio)propanamide] | – | – | pest or weed control at 100 ppm [5]: ≥ 90% |
| CN(C(=O)OC(C)(C)C)c1cnn(C(C)(C)C)c1Cl [G-002, tert-butyl 1-tert-butyl-5-chloro-1H-pyrazol-4-yl(methyl)carbamate] | – | – | mortality at 500 ppm [4]: ≥ 90% |
| CNc1cn(-c2cccnc2)nc1C [A-001, N,3-dimethyl-1-(pyridin-3-yl)-1H-pyrazole-4-amine dihydrochloride] | – | – | mortality at 500 ppm [2, 7]: ≥ 90% |
| Nc1cn(-c2cccnc2)nc1Cl [B-021, 3-chloro-1-(pyridin-3-yl)-1H-pyrazole-4-amine] | ≥ 90% | – | – |

| Structure (SMILES) | mortality at 500 ppm [3, 8] | mortality at 500 ppm [4, 9] | further results |
| --- | --- | --- | --- |
| CCSC(C)C(=NOC)Nc1cn(-c2cccnc2)nc1Cl (stereo not drawn) [1-356, N-{3-chloro-1-(pyridin-3-yl)-1H-pyrazol-4-yl}-2-(ethylthio)-N′-methoxypropanimidamide] | ≥ 90% | – | mortality at 500 ppm [1, 6]: ≥ 90% |
| CSCCNc1cn(-c2cccnc2)nc1Cl [C-002, 3-chloro-N-{2-(methylthio)ethyl}-1-(pyridin-3-yl)-1H-pyrazole-4-amine] | ≥ 90% | ≥ 90% | – |
| Cc1nn(-c2cccnc2)cc1N [B-009, 3-methyl-1-(pyridin-3-yl)-1H-pyrazole-4-amine] | ≥ 90% | – | – |
| CCNc1cn(-c2cccnc2)nc1C(F)(F)F [B-018, N-ethyl-1-(pyridin-3-yl)-3-(trifluoromethyl)-1H-pyrazole-4-amine] | ≥ 90% | ≥ 90% | – |
| CC(C)(C)OC(=O)Nc1cn(-c2cccnc2)nc1Cl [1-046, tert-butyl 3-chloro-1-(pyridin-3-yl)-1H-pyrazol-4-ylcarbamate] | – | – | mortality at 500 ppm [1, 6]: ≥ 90% |
| CC(C)(C)OC(=O)Nc1cnn(C(C)(C)C)c1Cl [F-001, tert-butyl 1-tert-butyl-5-chloro-1H-pyrazol-4-ylcarbamate] | ≥ 90% | – | – |
| CSCCCNc1cn(-c2cccnc2)nc1Cl [C-001, 3-chloro-N-{3-(methylthio)propyl}-1-(pyridin-3-yl)-1H-pyrazole-4-amine] | ≥ 90% | ≥ 90% | – |
| Cc1nn(-c2cccnc2)cc1N [A-009, 3-methyl-1-(pyridin-3-yl)-1H-pyrazole-4-amine dihydrochloride] | – | ≥ 90% | mortality at 500 ppm [2, 7]: ≥ 90% |
| CCSC(C)C(=O)N(CC)c1c[nH]nc1Cl (stereo not drawn) [J-001, N-(3-chloro-1H-pyrazol-4-yl)-N-ethyl-2-(ethylthio)propanamide] | – | ≥ 90% | – |
| Cc1c(NC(=O)OC(C)(C)C)cnn1-c1cccnc1 [5-001, tert-butyl 5-methyl-1-(pyridin-3-yl)-1H-pyrazol-4-ylcarbamate] | – | – | mortality at 500 ppm [2, 7]: ≥ 90% |
| CCNc1cn(-c2cccnc2)nc1Cl [A-004, 3-chloro-N-ethyl-1-(pyridin-3-yl)-1H-pyrazole-4-amine dihydrochloride] | – | ≥ 90% | – |
| CCNc1cnn(C(C)(C)C)c1Cl [H-001, 1-tert-butyl-5-chloro-N-ethyl-1H-pyrazole-4-amine hydrochloride] | – | ≥ 90% | – |
| CCCNc1cn(-c2cccnc2)nc1Cl [B-006, 3-chloro-N-n-propyl-1-(pyridin-3-yl)-1H-pyrazole-4-amine] | ≥ 90% | ≥ 90% | mortality at 500 ppm [2, 7]: ≥ 90% |
| C#CCNc1cn(-c2cccnc2)nc1Cl [B-008, 3-chloro-N-(prop-2-ynyl)-1-(pyridin-3-yl)-1H-pyrazole-4-amine] | ≥ 90% | ≥ 90% | mortality at 500 ppm [2, 7]: ≥ 90% |
| CCSC(C)C(=O)N(CC)c1cnn(C(C)(C)C)c1Cl (stereo not drawn) [1-001, N-(1-tert-butyl-5-chloro-1H-pyrazol-4-yl)-N-ethyl-2-(ethylthio)propanamide] | – | ≥ 90% | mortality at 500 ppm [2, 7]: ≥ 90% |
| FC(F)(F)CNc1cn(-c2cccnc2)nc1Cl [B-012, 3-chloro-1-(pyridin-3-yl)-N-(2,2,2-trifluoroethyl)-1H-pyrazole-4-amine] | ≥ 90% | – | – |
| CC(C)(C)OC(=O)Nc1cn(-c2cccnc2)nc1Br [1-188, tert-butyl 3-bromo-1-(pyridin-3-yl)-1H-pyrazol-4-ylcarbamate] | ≥ 90% | – | mortality at 500 ppm [1, 6]: ≥ 90% |
